# Experimental data taken from patent US20250179057A1, “MEK IMMUNE ONCOLOGY INHIBITORS AND THERAPEUTIC USES THEREOF” (Immuneering Corporation, priority 2022, published 2025).
# What was measured:
# [1] = Plasma stability, mouse plasma (Balb/c; Table 5 head CD-1 Mouse); type: in vitro ADME; settings: balb/c plasma, 2 μM, anti-coagulant K2-EDTA
# [2] = tested on: wistar hannover rat hepatocytes; test: Hepatocyte stability, wistar hannover rat; type: in vitro ADME; settings: 2 μM, 0.5 million cells/ml
# Description: (§1) In this study, human, cynomolgus monkey, beagle dog, wistar hannover rat, and balb/c mouse hepatocyle stability was determined.
# [3] = Plasma stability, cynomolgus monkey plasma (K2-EDTA); type: in vitro ADME; settings: 2 μM, anti-coagulant K2-EDTA
# Caco-2 cells = test: Caco-2 bidirectional permeability (absorption & efflux); settings: Example 47
# [4] = Kinetic solubility (PBS pH 7.4; 4 hr); type: physicochemical; settings: free base (Table 19); read-out: Kinetic Solubility
# Outline: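 Compound shaken in PBS pH 7.4 for 4 h at room temperature, then centrifuged. Supernatant, diluted with DMSO, quantified by LC-UV peak area against DMSO calibration curves.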
# CYP2C19 = CYP2C19 (Homo sapiens, UniProt P33261); test: CYP450 panel inhibition in human liver microsomes, 2C19 (mephenytoin); settings: 10 μM, substrate mephenytoin
# [5] = Plasma stability, rat plasma (Wistar Han / wistar hannover; Table 5 head SD Rat); type: in vitro ADME; settings: wistar hannover rat plasma, 2 μM, anti-coagulant K2-EDTA
# [6] = Plasma stability, beagle dog plasma (K2EDTA); type: in vitro ADME; settings: beagle dog plasma, 2 μM, anti-coagulant K2-EDTA
# CYP3A4 = CYP3A4 (Homo sapiens, UniProt P08684); test: CYP450 panel inhibition in human liver microsomes, 3A4 (midazolam / testosterone); settings: 10 μM
# beagle dog hepatocytes = test: Hepatocyte stability, beagle dog; type: in vitro ADME; settings: 2 μM, 0.5 million cells/ml
# Description: as §1
# [7] = tested on: cynomolgus monkey hepatocytes; test: Hepatocyte stability, cynomolgus monkey; type: in vitro ADME; settings: 2 μM, 0.5 million cells/ml
# Description: as §1
# balb/c mouse hepatocytes = test: Hepatocyte stability, balb/c mouse; type: in vitro ADME; settings: 2 μM, 0.5 million cells/ml
# Description: as §1
# Sequence of CYP3A4 (P08684 whole entry): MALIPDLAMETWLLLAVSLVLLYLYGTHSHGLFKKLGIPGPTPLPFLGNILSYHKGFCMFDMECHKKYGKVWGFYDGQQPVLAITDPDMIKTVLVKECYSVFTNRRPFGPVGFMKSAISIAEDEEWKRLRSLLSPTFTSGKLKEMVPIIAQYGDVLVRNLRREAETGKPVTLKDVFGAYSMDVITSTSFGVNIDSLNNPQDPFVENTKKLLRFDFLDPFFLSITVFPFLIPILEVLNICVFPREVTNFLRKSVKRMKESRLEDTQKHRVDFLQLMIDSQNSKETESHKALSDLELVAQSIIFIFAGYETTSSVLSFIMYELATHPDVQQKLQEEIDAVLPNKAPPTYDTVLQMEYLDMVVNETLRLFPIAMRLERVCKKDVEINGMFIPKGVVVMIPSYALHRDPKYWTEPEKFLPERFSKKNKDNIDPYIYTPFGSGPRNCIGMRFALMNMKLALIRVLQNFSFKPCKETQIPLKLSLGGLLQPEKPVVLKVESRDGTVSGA
# Sequence of CYP2C19 (P33261 whole entry): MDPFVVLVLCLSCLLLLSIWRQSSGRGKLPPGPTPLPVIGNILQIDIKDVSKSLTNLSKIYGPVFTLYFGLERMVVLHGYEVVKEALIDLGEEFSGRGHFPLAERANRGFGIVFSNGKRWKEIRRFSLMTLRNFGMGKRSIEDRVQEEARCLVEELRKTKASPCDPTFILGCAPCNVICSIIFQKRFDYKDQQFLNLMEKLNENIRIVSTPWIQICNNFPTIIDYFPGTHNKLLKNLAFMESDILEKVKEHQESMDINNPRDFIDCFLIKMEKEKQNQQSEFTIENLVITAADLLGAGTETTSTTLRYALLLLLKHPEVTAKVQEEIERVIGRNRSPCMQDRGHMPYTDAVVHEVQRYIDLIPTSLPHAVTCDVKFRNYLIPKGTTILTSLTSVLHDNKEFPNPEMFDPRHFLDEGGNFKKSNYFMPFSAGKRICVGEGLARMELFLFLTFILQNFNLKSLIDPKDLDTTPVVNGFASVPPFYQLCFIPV
smiles,measurement,setting,value
CCS(=O)(=O)Nc1cccc(Cc2c(CN(C)C)c3ccc(OC(=O)N(C)C)cc3oc2=O)c1F [Compound 120],T1/2,[1],238.68 h
same,% Remaining at T120,[1]; 120 min,94.2%
same,% Remaining At T120,[2],32.0%
same,CLint (L/hr/kg),[2],3.07 L/h/kg
same,CLint (mL/min/kg),[2],51.2 mL/min/kg
same,T1/2,[2],1.22 h
same,T1/2,[3],>2 h
same,% Remaining at T120,[3]; 120 min,107.3%
same,A − B Permeability Ranking,Caco-2 cells,Higher
same,Mean Efflux Ratio,Caco-2 cells,0.567
same,Mean Papp A − B (10^−6 cm/s),Caco-2 cells,21.9 10^−6 cm/s
same,Mean Papp B − A (10^−6 cm/s),Caco-2 cells,12.4 10^−6 cm/s
same,solubility kinetic at 4 h,[4],>80 µM
same,CYP-2C19 (Mephenytoin) mean percentage CYP inhibition,CYP2C19,14.2%
same,T1/2,[5],42.68 h
same,% Remaining at T120,[5]; 120 min,96.8%
same,T1/2,[6],>2 h
same,% Remaining at T120,[6]; 120 min,100.9%
same,CYP-3A4 (Midazolam) mean percentage CYP inhibition,CYP3A4; substrate midazolam,11.4%
same,CYP-3A4 (Testosterone) mean percentage CYP inhibition,CYP3A4; substrate testosterone,12.6%
same,% Remaining At T120,beagle dog hepatocytes,49.5%
same,CLint (L/hr/kg),beagle dog hepatocytes,3.78 L/h/kg
same,CLint (mL/min/kg),beagle dog hepatocytes,63.0 mL/min/kg
same,T1/2,beagle dog hepatocytes,1.97 h
same,% Remaining At T120,[7],31.6%
same,CLint (L/hr/kg),[7],4.67 L/h/kg
same,CLint (mL/min/kg),[7],77.8 mL/min/kg
same,T1/2,[7],1.2 h
same,% Remaining At T120,balb/c mouse hepatocytes,71.4%
same,CLint (L/hr/kg),balb/c mouse hepatocytes,3.98 L/h/kg
same,CLint (mL/min/kg),balb/c mouse hepatocytes,66.3 mL/min/kg
same,T1/2,balb/c mouse hepatocytes,4.12 h
